Data: PubChem BioAssay (NCI)
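Test compounds were applied to cells in 96-well plates for 48 hours at 5 doses. GI50 = concentration required for 50% inhibition of growth. TGI: concentration producing complete growth inhibition.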

Assays:
Experiment in all cases: DTP human tumour cell line panel, 48 h
UO-31 renal = tested on: UO-31 renal
KM12 colon = tested on: KM12 colon
M14 melanoma = tested on: M14 melanoma
MOLT-4 leukemia = tested on: MOLT-4 leukemia
DU-145 prostate = tested on: DU-145 prostate
UACC-62 melanoma = tested on: UACC-62 melanoma
UACC-257 melanoma = tested on: UACC-257 melanoma
EKVX NSCLC = tested on: EKVX NSCLC
RXF 393 renal = tested on: RXF 393 renal
MALME-3M melanoma = tested on: MALME-3M melanoma

Compound | GI50 (UO-31 renal) [µM] | TGI (UO-31 renal) [µM] | GI50 (KM12 colon) [µM] | TGI (KM12 colon) [µM] | GI50 (M14 melanoma) [µM] | TGI (M14 melanoma) [µM] | GI50 (MOLT-4 leukemia) [µM] | TGI (MOLT-4 leukemia) [µM] | GI50 (DU-145 prostate) [µM] | TGI (DU-145 prostate) [µM] | GI50 (UACC-62 melanoma) [µM] | TGI (UACC-62 melanoma) [µM] | GI50 (UACC-257 melanoma) [µM] | TGI (UACC-257 melanoma) [µM] | GI50 (EKVX NSCLC) [µM] | TGI (EKVX NSCLC) [µM] | GI50 (RXF 393 renal) [µM] | TGI (RXF 393 renal) [µM] | GI50 (MALME-3M melanoma) [µM] | TGI (MALME-3M melanoma) [µM]
c1cnc2[nH]cc(-c3csc(-c4cn(CCCN5CCCCC5)c5ccccc45)n3)c2c1 | 1.18 | 2.5 | 1.61 | 3.13 | 1.76 | 3.45 | 1.82 | 3.52 | 1.74 | 3.16 | 1.7 | 3.3 | 1.97 | 3.73 | – | – | – | – | – | –
O=C(/C=C/c1cn(-c2ccccc2)nc1-c1ccc([N+](=O)[O-])cc1)c1ccc(Cl)cc1 | – | – | – | – | – | – | 1.27 | > 100 | – | – | 6.01 | > 100 | > 100 | > 100 | > 22.3 | > 100 | 1.92 | 5.19 | 2.44 | 6.59
CCCCCCCCCC(=O)Oc1cccc2onc(C)c12 | – | > 100 | – | > 100 | – | > 100 | – | > 100 | – | – | – | > 100 | – | > 100 | – | > 100 | – | > 100 | – | > 100
CC[P+]1(CC)CCCC1 | – | > 100 | – | > 100 | – | > 100 | – | > 100 | – | – | – | > 100 | – | > 100 | – | > 100 | – | > 100 | – | > 100
CC1(C)OC(COCCOCCCCCO)C(COCCOCCCCCO)O1 (stereo not drawn) | – | > 100 | – | > 100 | – | > 100 | – | > 100 | – | – | – | > 100 | – | > 100 | – | > 100 | – | > 100 | – | > 100
c1ccc(OCCSCCCCCCCCCCSCCOc2ccccc2)cc1 | – | > 100 | – | > 100 | – | > 100 | – | > 100 | – | – | – | > 100 | – | > 100 | – | > 100 | – | > 100 | – | 90.4
CC1=C(C(=O)CC(=O)C(=O)NC2C3CC4CC(C3)CC2C4)Sc2ccccc2N1 (stereo not drawn) | – | > 100 | – | > 100 | – | > 100 | – | – | – | – | – | > 100 | – | > 100 | – | > 100 | – | > 100 | – | > 100
COc1cc([C@H]2c3[nH]c4ccccc4c3C[C@H]3COC(=O)N32)cc(OC)c1O | – | 29.7 | – | 20.7 | – | > 100 | – | 11.2 | – | – | – | 43.4 | – | > 100 | – | 22.7 | – | 1.51 | – | > 100
COC(=O)C1(F)C(=O)NC(=O)NC1OC (stereo not drawn) | – | > 100 | – | > 100 | – | – | – | > 100 | – | – | – | > 100 | – | > 100 | – | – | – | – | – | > 100
COC(=O)[C@H](Cc1ccccc1)NC(=O)c1csc([C@@H](C[C@H](C(C)C)N(C)C(=O)[C@@H](NC(=O)[C@H]2CCCN2C)C2CC2)OC(C)=O)n1 | 2.17 | > 27.9 | 0.45 | > 33.3 | 0.281 | > 33.3 | 0.215 | > 33.3 | 0.346 | > 33.3 | 1.38 | > 33.3 | 16.9 | > 33.3 | 1.97 | > 33.3 | – | – | 5.49 | > 33.3
